From US8618063B2, “Method for treating a synucleinopathy” (The Board of Trustees of the University of Illinois, priority 2008, dated 2013)

What was measured:
[1] = tested on: MPP+ effects on fast axonal transport; experiment: Isolated axoplasm: blocking of MPP+ effects on fast axonal transport; type: cell-based, squid Loligo pealeii; settings: for blocking of MPP+ effects on fast axonal transport: FIG. 5B
Description: (§1) Axoplasm was extruded from giant axons of the squid Loligo pealeii (Marine Biological Laboratory) according to established methods (Brady, et al. (1985) Cell Motil. 5(2):81-101). Axons were 400-600 μm in diameter and provided ≈5 μl of axoplasm per axon. Wild-type α-synuclein or α-synuclein with point mutations associated with familial Parkinson's disease (Ala30Pro or Ala53Thr), MPP+, enzymes or inhibitors were diluted into X/2 buffer (175 mM potassium aspartate, 65 mM taurine, 35 mM betaine, 25 mM glycine, 10 mM HEPES, 6.5 mM MgCl2, 5 mM EGTA, 1.5 mM CaCl2, 0.5 mM glucose, pH 7.2) supplemented with 2-5 mM ATP and 20 μl of this mix was added to perfusion chambers (Brady, et al. (1985) supra). Preparations were analyzed on a ZEISS AXIOMAT with a 100×, 1.3 na objective, and DIC optics. Hamamatsu Argus 20 and Model 2400 CCD camera were used for image processing and analysis. Organelle velocities were measured with a Photonics Microscopy C2117 video manipulator (Hamamatsu).
(§2) MPTP/MPP+ is the best characterized example of toxin-induced Parkinson's disease. The effects of MPP+ on fast axonal transport were examined in axoplasm as was dynein phosphorylation in cells. […] Based on reports that MPP+ could activate caspase3 (Turmel, et al. (2001) Mov. Disord. 16:185-9) and that caspase3 can activate a PKC by proteolytic cleavage (Kaul, et al. (2003) Eur. J. Neurosci. 18:1387-401), the ability of a caspase3 inhibitor to block effects of MPP+ on fast axonal transport was evaluated. […] Further, perfusion with Caspase 3 affected retrograde transport in a manner similar to PKC and MPP+ (retrograde transport=1.462±0.016 μm/sec).

[2] = tested on: MPP+ induced failure of neurotransmission; experiment: Squid giant synapse: prevention of MPP+ induced failure of neurotransmission; type: cell-based; settings: co-injection with MPP+
Description: (§3) If they both work by activating PKC and increasing retrograde transport, they might affect availability of synaptic vesicle components in presynaptic terminals. Accordingly, either wild-type α-synuclein, Ala30Pro α-synuclein, or MPP+ were injected into the presynaptic side of the squid giant synapse as described for synaptic vesicles and synapsin (McGuinness, et al. (1989) J. Neurosci. 9:4138-4149; Llinas, et al. (1989) Proc. Nat. Acad. Sci. USA 86:5656-5660). This preparation has been used to evaluate the effects of reagents on presynaptic function by injecting, then stimulating the presynaptic side while recording intracellularly on both pre- and post-synaptic sides (Llinas, et al. (2004) Proc. Natl. Acad. Sci. USA 101:17855-60; Sugimori, et al. (1998) Neuroscience 86:39-51).

[3] = tested on: α-synuclein mutant Ala30Pro effects on fast axonal transport; experiment: Isolated axoplasm: blocking of mutant α-synuclein (Ala30Pro) effects on fast axonal transport; type: cell-based, squid Loligo pealeii; settings: coperfused with α-synuclein mutant Ala30Pro, FIG. 3
Description: as §1
Accordingly, these inhibitors were coperfused with pathological α-synuclein mutant Ala30Pro and fast axonal transport was monitored. […] Similarly, the effects of α-synuclein mutant Ala30Pro could be blocked by a PKCmu peptide substrate (FIG. 3B) and an inhibitor of Src-Family Tyrosine Kinases (PP2) (FIG. 3C).

[4] = tested on: Ala30Pro mutant α-synuclein induced failure of neurotransmission; experiment: Squid giant synapse: prevention of Ala30Pro α-synuclein induced failure of neurotransmission; type: cell-based; settings: co-injection / coperfusion with Ala30Pro α-synuclein
Description: as §3

DIC phosphorylation = experiment: Labeling studies with MPP+ treated cortical neurons; type: cell-based
Description: One mCi ^32P phosphate (ICN) was added per dish and incubated for 4 hours. Medium was discarded, cells homogenized in 1 ml of ROLB buffer and processed accordingly to standard methods (Morfini, et al. (2004) supra). Axoplasms were prepared as for video microscopy, but 1 mCi of γ-^32P-ATP was added. After 50 minutes incubation, axoplasms were homogenized in ROLB buffer. A 10 μl aliquot of lysate was precipitated with 15% TCA and radioactivity incorporated into protein determined by scintillation counting. Aliquots of equal counts were used for kinesin immunoprecipitation with 10 μg of 74.1 antibody and Protein G-agarose beads (Pierce). Immunoprecipitates were separated by SDS-PAGE, dried and exposed in a PHOSPHORIMAGER cassette, then scanned and quantified on a TYPHOON (Amersham/Molecular Dynamics).
as §2

PKC = PKC activity in axoplasm; type: biochemical, squid
Description: In the analysis disclosed herein, 3-4 axoplasms were triturated in KB buffer (10 mM HEPES, pH 7.4, 10 mM MgCl2, 1 mM DTT) and aliquoted. Individual reactions with corresponding in vitro translated AR constructs were started by adding radiolabeled ATP to 100 μM. Reactions were performed in 50 μl, incubated for 20 minutes at room temperature and stopped with 50 μl of 2× sample buffer. Lysates were separated by SDS-PAGE and analyzed by autoradiography.

[5] = tested on: neurotransmission at squid giant synapse; experiment: Squid giant synapse: neurotransmission after presynaptic injection; type: cell-based; settings: injected into presynaptic side of squid giant synapse; observed up to 90 minutes
Description: as §3

fast axonal transport = experiment: Motility studies in isolated axoplasm: effect of perfused substance on fast axonal transport; type: cell-based, squid Loligo pealeii; settings: substance perfused alone into isolated axoplasm
Description: as §1

SMILES: COC(=O)CC[C@H](NC(=O)[C@H](CC(=O)OC)NC(=O)OCc1ccccc1)C(=O)N[C@H](C(=O)N[C@@H](CC(=O)OC)C(=O)CF)C(C)C [Caspase3 Inhibitor II]
- blocking of MPP+ effects on fast axonal transport [1]: completely block
- blocking of MPP+ effects on fast axonal transport ([1]; listed as caspase3 inhibitor II): blocked
- anterograde transport rate in presence of MPP+ and inhibitor ([1]; coperfused with MPP+): 1.527±0.019 μm/sec
- retrograde transport rate in presence of MPP+ and inhibitor ([1]; coperfused with MPP+): 1.187±0.019 μm/sec
- prevention of MPP+ induced failure of neurotransmission [2]: prevented
- blocking of familial Parkinson's disease mutant α-synuclein (Ala30Pro) effects on fast axonal transport ([3]; listed as Caspase inhibitor): ineffective
- blocking of familial Parkinson's disease mutant α-synuclein (Ala30Pro) effects on fast axonal transport ([3]; listed as inhibitors of Caspase 3): not effective
- prevention of Ala30Pro α-synuclein effect on neurotransmission [4]: not effective
- blocking of MPP+ induced increase in DIC phosphorylation (DIC phosphorylation; MPP+ treated cortical neurons): blocked

SMILES: C[n+]1ccc(-c2ccccc2)cc1 [MPP+]
- PKC activity in axoplasm (PKC): activated PKC activity
- effect on neurotransmission, in words [5]: failure of neurotransmission
- retrograde transport rate (fast axonal transport; controls 1.2 μm/sec): 1.461±0.023 μm/sec
- anterograde transport rate (fast axonal transport; controls 1.6 μm/sec): 1.272±0.0032 μm/sec
- DIC phosphorylation (DIC phosphorylation; cortical neurons treated with substance alone): increased DIC phosphorylation
